Experimental data published in patent US20240270762A1, “PENICILLIN-BINDING PROTEIN INHIBITORS” (priority 2021, published 2024).
≈ marks a conversion by molar mass, not a printed value. Like-named read-outs stand apart in the source and are kept apart here.

Experiments:
A. baumannii 1258916 = experiment: microbe, parasite or virus in culture; format: cell-based, Acinetobacter baumannii; settings: Acinetobacter baumannii, 1258916, read-out: Minimum inhibitory concentration (MIC), A. baumannii 1258916
[1] = molecular target: T1, PBP3 from Pseudomonas aeruginosa (PAO1) (Pseudomonas aeruginosa, UniProt G3XD46); experiment: Bocillin-FL fluorescence polarization competition binding, P. aeruginosa PBP3; settings: Binding affinity to P. aeruginosa PBP3; fluorescence polarization competition binding assay using Bocillin-FL; read-out: P. aeruginosa PBP3 Potency
T1 construct: made in house
Summary of the method: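 Purified PBP was preincubated with inhibitor (E. coli PBP3 1.5 μM, 30 min; P. aeruginosa PBP3 0.75 μM, A. baumannii PBP3 0.2 μM and PBP1a 1 μM, 15 min), then Bocillin-FL (0.1 μM; 0.05 μM for PBP1a) added and FP read up to 60 min. EC50 = 50% loss of bound probe.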

B. pseudomallei Bp82 = experiment: microbe, parasite or virus in culture; format: cell-based; settings: Burkholderia pseudomallei, BP82, read-out: Minimum inhibitory concentration, B. pseudomallei Bp82
A. baumannii ATCC 19606 = experiment: microbe, parasite or virus in culture; format: cell-based; settings: Acinetobacter baumannii, ATCC19606, read-out: Minimum inhibitory concentration (MIC), A. baumannii ATCC 19606
[2] = test system: B. thailandensis ATCC 700388; experiment: microbe, parasite or virus in culture; format: cell-based; settings: Burkholderia thailandensis, ATCC700388, read-out: Minimum inhibitory concentration (MIC), B. thailandensis ATCC 700388
A. baumannii PBP1a = molecular target: T2, A. baumannii PBP1a (Acinetobacter baumannii, UniProt A0ABX6CK30); experiment: Bocillin-FL competition binding via gel filtration, A. baumannii PBP1a
T2 sequence (A0ABX6CK30 1-851): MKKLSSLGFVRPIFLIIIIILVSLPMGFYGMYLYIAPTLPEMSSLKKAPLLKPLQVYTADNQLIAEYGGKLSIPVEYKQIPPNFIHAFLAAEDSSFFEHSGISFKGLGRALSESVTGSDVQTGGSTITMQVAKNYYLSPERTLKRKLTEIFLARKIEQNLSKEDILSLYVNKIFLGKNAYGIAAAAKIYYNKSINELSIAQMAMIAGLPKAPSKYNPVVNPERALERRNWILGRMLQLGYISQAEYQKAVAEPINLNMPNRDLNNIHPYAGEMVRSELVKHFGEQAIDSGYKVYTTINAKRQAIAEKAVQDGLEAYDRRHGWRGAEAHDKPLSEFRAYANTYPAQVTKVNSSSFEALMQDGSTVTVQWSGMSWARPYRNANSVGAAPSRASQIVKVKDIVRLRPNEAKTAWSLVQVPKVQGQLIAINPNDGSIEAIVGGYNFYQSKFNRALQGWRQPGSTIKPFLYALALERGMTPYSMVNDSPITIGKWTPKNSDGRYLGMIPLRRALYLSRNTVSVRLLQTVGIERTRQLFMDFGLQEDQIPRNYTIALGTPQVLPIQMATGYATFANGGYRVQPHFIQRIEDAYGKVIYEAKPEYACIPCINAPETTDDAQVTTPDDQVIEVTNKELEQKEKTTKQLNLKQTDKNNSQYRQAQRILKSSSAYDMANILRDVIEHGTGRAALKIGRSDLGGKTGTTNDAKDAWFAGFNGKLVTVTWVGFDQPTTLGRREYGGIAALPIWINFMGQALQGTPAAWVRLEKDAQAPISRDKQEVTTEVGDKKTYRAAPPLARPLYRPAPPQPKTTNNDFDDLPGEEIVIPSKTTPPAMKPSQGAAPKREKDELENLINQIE
Description: (§1) Affinity to A. baumannii PBP1a and PBP2 was assessed a competitive equilibrium binding assay using Bocillin-FL as the reporter molecule. Enzyme was pre-incubated with increasing concentrations of inhibitors, prior to addition of Bocillin and further incubation for 15 minutes. PBP bound with Bocillin-FL was separated by gel filtration using 96-well Zeba Spin size exclusion plates, and the fluorescence measured. The inhibitor affinity (reported as the EC50) was determined by plotting the fraction of PBP bound with Bocillin-FL at each inhibitor concentration against the inhibitor concentration, and fitting the data to the following equation:
(§2) [formula] • where y is the fraction bound at a given inhibitor concentration, ymin is the fraction bound when the enzyme is completely inactivated, ymax is the maximum (uninhibited) fraction bound, n is the Hill coefficient, and x is the inhibitor concentration.

A. baumannii CDC-0045 = experiment: microbe, parasite or virus in culture; format: cell-based; settings: Acinetobacter baumannii, CDC0045, read-out: Minimum inhibitory concentration (MIC), A. baumannii CDC-0045
A. baumannii CDC-0033 = experiment: microbe, parasite or virus in culture; format: cell-based; settings: Acinetobacter baumannii, CDC0033, read-out: Minimum inhibitory concentration (MIC), A. baumannii CDC-0033
A. baumannii ATCC 17978 = experiment: microbe, parasite or virus in culture; format: cell-based; settings: Acinetobacter baumannii, ATCC17978, read-out: Minimum inhibitory concentration (MIC), A. baumannii ATCC 17978
A. baumannii PBP2 = A. baumannii PBP2 (Acinetobacter baumannii, UniProt D0C8Z9); experiment: Bocillin-FL competition binding via gel filtration, A. baumannii PBP2
Description: as §1, §2

A. baumannii CDC-0036 = experiment: microbe, parasite or virus in culture; format: cell-based; settings: Acinetobacter baumannii, CDC0036, read-out: Minimum inhibitory concentration (MIC), A. baumannii CDC-0036
[3] = test system: B. humptydooensis ATCC BAA-2767; experiment: microbe, parasite or virus in culture; format: cell-based; settings: Burkholderia humptydooensis, ATCCBAA2767, read-out: Minimum inhibitory concentration (MIC), B. humptydooensis ATCC BAA-2767
P. aeruginosa CDC-0090 = experiment: microbe, parasite or virus in culture; format: cell-based; settings: Pseudomonas aeruginosa, CDC0090, read-out: Minimum inhibitory concentration, P. aeruginosa CDC-0090
P. aeruginosa ATCC 27853 = experiment: microbe, parasite or virus in culture; format: cell-based; settings: Pseudomonas aeruginosa, ATCC27853, read-out: Minimum inhibitory concentration, P. aeruginosa ATCC 27853
P. aeruginosa CDC-0110 = experiment: microbe, parasite or virus in culture; format: cell-based; settings: Pseudomonas aeruginosa, CDC0110, read-out: Minimum inhibitory concentration, P. aeruginosa CDC-0110
P. aeruginosa CDC-0095 = experiment: microbe, parasite or virus in culture; format: cell-based; settings: Pseudomonas aeruginosa, CDC0095, read-out: Minimum inhibitory concentration, P. aeruginosa CDC-0095
P. aeruginosa ATCC 35151 = experiment: microbe, parasite or virus in culture; format: cell-based; settings: Pseudomonas aeruginosa, ATCC35151, read-out: Minimum inhibitory concentration, P. aeruginosa ATCC 35151
[4] = test system: P. aeruginosa (ΔmexAB-oprM); experiment: Broth microdilution MIC in iron-depleted CAMHB (IDM); format: cell-based; settings: Pseudomonas aeruginosa, read-out: Minimum inhibitory concentration, P. aeruginosa ΔmexAB-oprM
P. aeruginosa CDC-0054 = experiment: microbe, parasite or virus in culture; format: cell-based; settings: Pseudomonas aeruginosa, CDC0054, read-out: Minimum inhibitory concentration, P. aeruginosa CDC-0054
[5] = competition binding assay using Bocillin-FL via gel filtration, read-out: A. baumannii PBP1a Potency

Chain of A. baumannii PBP2 (D0C8Z9 whole entry): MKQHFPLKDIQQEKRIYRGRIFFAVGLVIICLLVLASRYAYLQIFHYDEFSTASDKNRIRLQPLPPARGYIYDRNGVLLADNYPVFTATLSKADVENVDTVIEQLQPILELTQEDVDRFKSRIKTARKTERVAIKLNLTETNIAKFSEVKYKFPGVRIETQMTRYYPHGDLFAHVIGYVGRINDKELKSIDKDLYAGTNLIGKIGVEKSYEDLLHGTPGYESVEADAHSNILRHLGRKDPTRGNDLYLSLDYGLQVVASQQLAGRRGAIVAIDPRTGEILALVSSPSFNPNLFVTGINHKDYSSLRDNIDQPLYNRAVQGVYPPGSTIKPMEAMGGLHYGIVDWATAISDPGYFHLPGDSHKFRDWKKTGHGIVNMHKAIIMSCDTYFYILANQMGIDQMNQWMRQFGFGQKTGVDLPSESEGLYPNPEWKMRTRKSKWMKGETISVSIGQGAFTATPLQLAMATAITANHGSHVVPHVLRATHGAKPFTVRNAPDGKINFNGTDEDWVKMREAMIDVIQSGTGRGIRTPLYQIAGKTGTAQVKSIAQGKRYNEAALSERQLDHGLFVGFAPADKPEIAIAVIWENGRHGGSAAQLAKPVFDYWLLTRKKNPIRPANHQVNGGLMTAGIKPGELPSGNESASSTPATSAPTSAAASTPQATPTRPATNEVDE
T1 sequence (G3XD46 whole entry): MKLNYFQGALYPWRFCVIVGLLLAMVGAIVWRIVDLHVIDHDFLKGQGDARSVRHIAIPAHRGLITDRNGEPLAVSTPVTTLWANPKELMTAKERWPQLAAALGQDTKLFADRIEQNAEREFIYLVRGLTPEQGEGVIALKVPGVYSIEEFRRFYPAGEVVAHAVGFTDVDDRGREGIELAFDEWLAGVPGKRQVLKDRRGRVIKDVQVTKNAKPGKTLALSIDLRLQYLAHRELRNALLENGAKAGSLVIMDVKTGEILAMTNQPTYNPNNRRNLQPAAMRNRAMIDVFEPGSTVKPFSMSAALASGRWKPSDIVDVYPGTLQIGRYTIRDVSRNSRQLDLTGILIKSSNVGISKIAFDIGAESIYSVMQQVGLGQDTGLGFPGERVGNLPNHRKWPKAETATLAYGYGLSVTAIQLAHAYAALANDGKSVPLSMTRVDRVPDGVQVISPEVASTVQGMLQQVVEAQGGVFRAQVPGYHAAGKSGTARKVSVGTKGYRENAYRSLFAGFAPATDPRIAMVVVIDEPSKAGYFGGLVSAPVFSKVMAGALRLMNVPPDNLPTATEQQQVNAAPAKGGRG

| SMILES | MIC [2] [mg/L] | EC50 (A. baumannii PBP1a; [5]) [µM] | EC50 (A. baumannii PBP2) [µM] | MIC [3] [mg/L] | MIC (P. aeruginosa CDC-0090) [mg/L] | MIC (P. aeruginosa ATCC 27853) [mg/L] | MIC (P. aeruginosa CDC-0110) [mg/L] | MIC (P. aeruginosa CDC-0095) [mg/L] | MIC (P. aeruginosa ATCC 35151) [mg/L] | MIC [4] [mg/L] | MIC (P. aeruginosa CDC-0054) [mg/L] | other results |
| --- | --- | --- | --- | --- | --- | --- | --- | --- | --- | --- | --- | --- |
| O=C(O)c1c(F)ccc2c1OB(O)[C@@H](NC(=O)[C@H](NC(=O)N1CCN(C3CCN(C(=O)Nc4cc(O)c(O)c(Cl)c4)CC3)C1=O)c1ccc(P(=O)(O)O)cc1)C2 (single isomer, unassigned) [Example 501] | < 1 | < 10 | < 10 | < 1 | – | – | – | – | – | – | – | MIC (A. baumannii 1258916): 2 to 4 mg/L (≈ 2.44 to 4.88 µM); IC50 [1]: < 10 µM; MIC (B. pseudomallei Bp82): 2 to 4 mg/L (≈ 2.44 to 4.88 µM); MIC (A. baumannii ATCC 19606): < 1 mg/L; MIC (A. baumannii CDC-0045): < 1 mg/L; MIC (A. baumannii CDC-0033): 2 to 4 mg/L (≈ 2.44 to 4.88 µM); MIC (A. baumannii ATCC 17978): < 1 mg/L; MIC (A. baumannii CDC-0036): 2 to 4 mg/L (≈ 2.44 to 4.88 µM) |
| NCc1ccc(C(=O)N2CCC(N3CCN(C(=O)NC(C(=O)N[C@H]4Cc5ccc(F)c(C(=O)O)c5OB4O)c4cc(F)c(O)c(O)c4Cl)C3=O)CC2)cc1 (single isomer, unassigned) [Example 604] | < 1 | 10 to 50 | 10 to 50 | < 1 | < 1 | < 1 | < 1 | 2 to 4 (≈ 2.59 to 5.19 µM) | < 1 | < 1 | < 1 | – |
| NCc1cc(O)cc(C(=O)N2CCC(N3CCN(C(=O)N[C@@H](C(=O)N[C@H]4Cc5ccc(F)c(C(=O)O)c5OB4O)c4cc(F)c(O)c(O)c4Cl)C3=O)CC2)c1 (single isomer, unassigned) [Example 615] | < 1 | 10 to 50 | 10 to 50 | < 1 | < 1 | < 1 | < 1 | < 1 | < 1 | < 1 | < 1 | – |
| NCc1ccc(C(=O)N2CCC(N3CCN(C(=O)NC(C(=O)N[C@H]4Cc5ccc(F)c(C(=O)O)c5OB4O)c4cc(F)c(O)c(O)c4Cl)C3=O)CC2)cc1O (single isomer, unassigned) [Example 616] | 2 to 4 (≈ 2.54 to 5.08 µM) | 10 to 50 | 10 to 50 | < 1 | < 1 | < 1 | < 1 | < 1 | < 1 | < 1 | < 1 | – |
| O=C(O)c1c(F)ccc2c1OB(O)[C@@H](NC(=O)C(NC(=O)N1CCN(C3CCN(Cc4cccc(O)c4)CC3)C1=O)c1cc(F)c(O)c(O)c1Cl)C2 (stereo partly drawn) [Example 605, (3R)-3-(2-(2-chloro-5-fluoro-3,4-dihydroxyphenyl)-2-(3-(1-(3-hydroxybenzyl)piperidin-4-yl)-2-oxoimidazolidine-1-carboxamido)acetamido)-7-fluoro-2-hydroxy-3,4-dihydro-2H-benzo[e][1,2]oxaborinine-8-carboxylic acid] | < 1 | – | 10 to 50 | < 1 | – | – | – | – | – | – | – | MIC (B. pseudomallei Bp82): < 1 mg/L; EC50 (A. baumannii PBP1a): < 10 µM |
| O=C(O)c1c(F)ccc2c1OB(O)[C@@H](NC(=O)[C@H](NC(=O)N1CCN(C3CCN(S(=O)(=O)c4ccc5[nH]nnc5c4)CC3)C1=O)c1cc(F)c(O)c(O)c1F)C2 [Example 622, (R)-3-((R)-2-(3-(1-((1H-benzo[d][1,2,3]triazol-5-yl)sulfonyl)piperidin-4-yl)-2-oxoimidazolidine-1-carboxamido)-2-(2,5-difluoro-3,4-dihydroxyphenyl)acetamido)-7-fluoro-2-hydroxy-3,4-dihydro-2H-benzo[e][1,2]oxaborinine-8-carboxylic acid] | 2 to 4 (≈ 2.49 to 4.98 µM) | – | – | – | < 1 | 2 to 4 (≈ 2.49 to 4.98 µM) | < 1 | 2 to 4 (≈ 2.49 to 4.98 µM) | < 1 | – | < 1 | MIC ([4]; iron-depleted CAMHB (IDM), […]): < 1 mg/L |
| O=C(O)c1c(F)ccc2c1OB(O)[C@@H](NC(=O)[C@H](NC(=O)N1CCN(C3CCN(C(=O)c4cc(O)cc(O)c4)CC3)C1=O)c1cc(F)c(O)c(O)c1F)C2 [Example 623, (R)-3-((R)-2-(2,5-difluoro-3,4-dihydroxyphenyl)-2-(3-(1-(3,5-dihydroxybenzoyl)piperidin-4-yl)-2-oxoimidazolidine-1-carboxamido)acetamido)-7-fluoro-2-hydroxy-3,4-dihydro-2H-benzo[e][1,2]oxaborinine-8-carboxylic acid] | < 1 | – | – | – | < 1 | < 1 | < 1 | < 1 | < 1 | – | < 1 | MIC ([4]; iron-depleted CAMHB (IDM), […]): < 1 mg/L |
